Where “and” joins values, the source holds several entries; their conditions need not be identical. Identical values can stand only once.
Experiment: xn = mol fraction of the nth substance listed

c1ccc2ccccc2c1 + CO
298.15 K, 101 kPa
Conditions	viscosity
x1 = 0.006	0.5509 mPa·s
x1 = 0.01	0.5564 mPa·s and 0.5619 mPa·s
x1 = 0.03	0.5893 mPa·s

CC1COC(=O)O1 (stereo not given) + COC(=O)OC
298.15 K, 101.3 kPa
Conditions	viscosity [mPa·s]
x2 = 0.0944	2.217
x2 = 0.1815	1.965
x2 = 0.3215	1.618
x2 = 0.4861	1.287
x2 = 0.5752	1.138
x2 = 0.6827	0.98
x2 = 0.7254	0.924
x2 = 0.7801	0.856
x2 = 0.9012	0.724

Brc1ccc2[n-]cnc2c1.CCCCCCCCCCCCCC[P+](CCCCCC)(CCCCCC)CCCCCC + COCCOCCOCCOCCOC
viscosity [mPa·s], 100 kPa
Conditions	293.15 K	298.15 K	303.15 K	308.15 K	313.15 K	318.15 K	323.15 K
x1 = 0.362	62	–	–	–	–	–	–
x1 = 0.522	164	125	98	77	63	51	–
x1 = 0.654	301	222	167	129	101	81	66
x1 = 0.782	631	449	326	243	185	143	114
x1 = 0.862	972	675	481	351	261	199	155
x1 = 0.898	1190	813	572	413	304	230	177

CC1COC(=O)O1 (stereo not given) + CS(C)=O
308.15 K, 101 kPa
Conditions	viscosity [mPa·s]
x2 = 0.0506	2.025
x2 = 0.1139	1.973
x2 = 0.2014	1.907
x2 = 0.2976	1.842
x2 = 0.382	1.794
x2 = 0.4759	1.746
x2 = 0.5376	1.719
x2 = 0.6343	1.684
x2 = 0.7176	1.659
x2 = 0.7898	1.645
x2 = 0.8643	1.64
x2 = 0.9376	1.639

CCOCCn1cc[n+](CCC#N)c1.O=S(=O)([N-]S(=O)(=O)C(F)(F)F)C(F)(F)F + CS(C)=O
Conditions	viscosity [mPa·s]
303.15 K, 101.33 kPa, x1 = 0.7207	40.65

Source: the CheMixHub viscosity set
